{"source": "BindingDB's records for doi:10.1021/acs.jmedchem.0c01826", "about": "(Athenex, 2021)", "key": {"[1]": {"assay": "Inhibition of P-gp (unknown origin) expressed in MES-SA/DX5 cells assessed as cell growth inhibition after 3 days in presence of 200 nM paclitaxel by MTT assay"}, "[2]": {"assay": "Inhibition of P-gp (unknown origin) expressed in MES-SA/DX5 cells assessed as increase in reversal of resistance to paclitaxel-induced cytotoxicity by measuring reduction in paclitaxel EC50 at 50 nM incubated for 72 hrs in presence of paclitaxel by SRB assay (Rvb = 294.6 nM)"}, "[3]": {"assay": "Inhibition of P-gp (unknown origin) expressed in MCF7 cells assessed as increase in reversal of resistance to paclitaxel-induced cytotoxicity by measuring reduction in paclitaxel EC50 at 50 nM incubated for 72 hrs in presence of paclitaxel by SRB assay (Rvb = 11.5 nM)"}}}
{"smiles": "COc1cc2c(cc1OC)CN(CCc1ccc(NC(=O)c3cc(OC)c(OC)cc3NC(=O)c3cnc4ccccc4c3)cc1)CC2", "values": [{"measurement": "EC50", "setting": "[1]", "value": 16, "unit": "nM"}]}
{"smiles": "COc1cc2c(cc1OC)CN(CCc1ccc(-n3nnc(-c4cc(OC)c(OC)cc4NC(=O)c4cnc5ccccc5c4)n3)cc1)CC2", "values": [{"measurement": "EC50", "setting": "[2]", "value": 15, "unit": "nM"}, {"measurement": "EC50", "setting": "[1]", "value": 75, "unit": "nM"}, {"measurement": "EC50", "setting": "[3]", "value": 7.9, "unit": "nM"}]}
{"smiles": "COc1cc2c(cc1OC)CN(CCc1ccc(-n3nnc(-c4cc(OC)c(OC)cc4NC(=O)c4ccc5ccccc5n4)n3)cc1)CC2", "values": [{"measurement": "EC50", "setting": "[2]", "value": 110, "unit": "nM"}, {"measurement": "EC50", "setting": "[3]", "value": 12, "unit": "nM"}]}
{"smiles": "COc1cc2c(cc1OC)CN(CCc1ccc(-n3nnc(-c4cc(OC)c(OC)cc4NC(=O)c4cc5ccccc5cn4)n3)cc1)CC2", "values": [{"measurement": "EC50", "setting": "[2]", "value": 84, "unit": "nM"}, {"measurement": "EC50", "setting": "[3]", "value": 8.5, "unit": "nM"}]}
{"smiles": "COc1cc2c(cc1OC)CN(CCc1ccc(-n3nnc(-c4cc(OC)c(OC)cc4NC(=O)c4cccc5cccnc45)n3)cc1)CC2", "values": [{"measurement": "EC50", "setting": "[2]", "value": 69, "unit": "nM"}, {"measurement": "EC50", "setting": "[3]", "value": 5.4, "unit": "nM"}]}
{"smiles": "COc1cc2c(cc1OC)CN(CCc1ccc(-n3nnc(-c4cc(OC)c(OC)cc4NC(=O)c4nccc5ccccc45)n3)cc1)CC2", "values": [{"measurement": "EC50", "setting": "[2]", "value": 162, "unit": "nM"}, {"measurement": "EC50", "setting": "[3]", "value": 7.6, "unit": "nM"}]}
{"smiles": "COc1cc2c(cc1OC)CN(CCc1ccc(-n3nnc(-c4cc(OC)c(OC)cc4NC(=O)c4cncc5ccccc45)n3)cc1)CC2", "values": [{"measurement": "EC50", "setting": "[2]", "value": 89, "unit": "nM"}, {"measurement": "EC50", "setting": "[3]", "value": 9.1, "unit": "nM"}]}
{"smiles": "COc1cc2c(cc1OC)CN(CCc1ccc(-n3nnc(-c4cc(OC)c(OC)cc4NC(=O)c4cccnc4)n3)cc1)CC2", "values": [{"measurement": "EC50", "setting": "[2]", "value": 98, "unit": "nM"}, {"measurement": "EC50", "setting": "[3]", "value": 9.1, "unit": "nM"}]}
{"smiles": "COc1cc2c(cc1OC)CN(CCc1ccc(-n3nnc(-c4cc(OC)c(OC)cc4NC(=O)c4ccc5ccccc5c4)n3)cc1)CC2", "values": [{"measurement": "EC50", "setting": "[2]", "value": 113, "unit": "nM"}, {"measurement": "EC50", "setting": "[3]", "value": 10, "unit": "nM"}]}
{"smiles": "COc1cc2c(cc1OC)CN(CCc1ccc(-n3nnc(-c4cc(OC)c(OC)cc4NC(=O)c4cnccn4)n3)cc1)CC2", "values": [{"measurement": "EC50", "setting": "[2]", "value": 98, "unit": "nM"}, {"measurement": "EC50", "setting": "[3]", "value": 9.1, "unit": "nM"}]}
{"smiles": "COc1cc2c(cc1OC)CN(CCc1ccc(-n3nnc(-c4cc(OC)c(OC)cc4NC(=O)c4ccccc4)n3)cc1)CC2", "values": [{"measurement": "EC50", "setting": "[2]", "value": 87, "unit": "nM"}, {"measurement": "EC50", "setting": "[3]", "value": 7.7, "unit": "nM"}]}
{"smiles": "COc1cc2c(cc1OC)CN(CCc1ccc(-n3nnc(-c4cc(OC)c(OC)cc4NC(=O)c4ccc(F)c(F)c4)n3)cc1)CC2", "values": [{"measurement": "EC50", "setting": "[2]", "value": 80, "unit": "nM"}, {"measurement": "EC50", "setting": "[3]", "value": 10, "unit": "nM"}]}
{"smiles": "COc1cc2c(cc1OC)CN(CCc1ccc(-n3nnc(-c4cc(OC)c(OC)cc4NC(=O)c4ccsc4)n3)cc1)CC2", "values": [{"measurement": "EC50", "setting": "[2]", "value": 66, "unit": "nM"}, {"measurement": "EC50", "setting": "[3]", "value": 6.4, "unit": "nM"}]}
{"smiles": "COc1cc2c(cc1OC)CN(CCc1ccc(-n3nnc(-c4cc(OC)c(OC)cc4NC(=O)c4ccoc4)n3)cc1)CC2", "values": [{"measurement": "EC50", "setting": "[2]", "value": 84, "unit": "nM"}, {"measurement": "EC50", "setting": "[3]", "value": 10, "unit": "nM"}]}
{"smiles": "COc1cc2c(cc1OC)CN(CCc1ccc(-n3nnc(-c4cc(OC)c(OC)cc4NC(=O)c4coc5ccccc5c4=O)n3)cc1)CC2", "values": [{"measurement": "EC50", "setting": "[2]", "value": 140, "unit": "nM"}, {"measurement": "EC50", "setting": "[3]", "value": 9, "unit": "nM"}]}
{"smiles": "COc1cc2c(cc1OC)CN(CCc1ccc(-n3nnc(-c4cc(OC)c(OC)cc4NC(=O)c4cc(=O)c5c(OC)cccc5o4)n3)cc1)CC2", "values": [{"measurement": "EC50", "setting": "[2]", "value": 5.9, "unit": "nM"}, {"measurement": "EC50", "setting": "[3]", "value": 7.4, "unit": "nM"}]}
{"smiles": "COc1cc2c(cc1OC)CN(CCc1ccc(-n3nnc(-c4cc(OC)c(OC)cc4NC(=O)c4cc(=O)c5cc(F)ccc5o4)n3)cc1)CC2", "values": [{"measurement": "EC50", "setting": "[2]", "value": 7.5, "unit": "nM"}, {"measurement": "EC50", "setting": "[3]", "value": 8.1, "unit": "nM"}]}
{"smiles": "COc1cc2c(cc1OC)CN(CCc1ccc(-n3nnc(-c4cc(OC)c(OC)cc4NC(=O)c4cc(=O)c5cc(C)ccc5o4)n3)cc1)CC2", "values": [{"measurement": "EC50", "setting": "[2]", "value": 4, "unit": "nM"}, {"measurement": "EC50", "setting": "[3]", "value": 6.5, "unit": "nM"}]}
{"smiles": "COc1cc2c(cc1OC)CN(CCc1ccc(-n3nnc(-c4cc(OC)c(OC)cc4NC(=O)c4cc(=O)c5ccccc5o4)n3)cc1)CC2", "note": "[Encequidar]", "values": [{"measurement": "EC50", "setting": "[2]", "value": 4.9, "unit": "nM"}, {"measurement": "EC50", "setting": "[1]", "value": 13, "unit": "nM"}, {"measurement": "EC50", "setting": "[3]", "value": 7.9, "unit": "nM"}]}
